Data from patent US11026426B2, “Oxadiazole and phenol derivatives as antibacterial and/or herbicidal agents” (NORTHERN ILLINOIS RESEARCH FOUNDATION, priority 2017, dated 2021).

Columns and labels:
[1] = system: Corynebacterium xerosis; assay: Antibacterial preliminary screening CX; assay type: cell-based; conditions: score 0-3; also: key: 0 represents no inhibition; 3 is comparable to commercial antibiotic control
[2] = system: Corynebacterium pseudodiphtheriae; assay: Antibacterial preliminary screening CP; assay type: cell-based; conditions: score 0-3;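 also: 0 is no inhibition and 3 matches the commercial antibiotic control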
[3] = biological target: T1, Mycobacterium tuberculosis IspD (MtIspD) (Mycobacterium tuberculosis, UniProt P9WKG9); assay: Thermal shift assay against MtIspD; assay type: binding
T1 sequence (P9WKG9 1-231): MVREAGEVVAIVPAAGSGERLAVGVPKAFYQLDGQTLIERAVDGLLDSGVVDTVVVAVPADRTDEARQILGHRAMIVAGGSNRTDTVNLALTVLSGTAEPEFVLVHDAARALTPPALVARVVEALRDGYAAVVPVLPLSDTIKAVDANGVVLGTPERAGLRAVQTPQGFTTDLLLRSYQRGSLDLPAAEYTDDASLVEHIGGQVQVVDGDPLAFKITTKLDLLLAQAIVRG

[4] = system: Micrococcus luteus; assay: Antibacterial preliminary screening ML; assay type: cell-based; conditions: score 0-3; also: key: 0 represents no inhibition; 3 is comparable to commercial antibiotic control
[5] = system: Mycobacterium smegmatis; assay: Antibacterial preliminary screening MS; assay type: cell-based; conditions: for MS score: score 0-3
[6] = system: Pseudomonas aeruginosa; assay: Antibacterial preliminary screening PA; assay type: cell-based; conditions: score 0-3; also: key: 0 represents no inhibition; 3 is comparable to commercial antibiotic control
[7] = biological target: Lycopersicon esculentum IspE (LeIspE) (Solanum lycopersicum, UniProt P93841); assay: Thermal shift assay against LeIspE; assay type: binding
Chain of Lycopersicon esculentum IspE (LeIspE) (P93841 89-401): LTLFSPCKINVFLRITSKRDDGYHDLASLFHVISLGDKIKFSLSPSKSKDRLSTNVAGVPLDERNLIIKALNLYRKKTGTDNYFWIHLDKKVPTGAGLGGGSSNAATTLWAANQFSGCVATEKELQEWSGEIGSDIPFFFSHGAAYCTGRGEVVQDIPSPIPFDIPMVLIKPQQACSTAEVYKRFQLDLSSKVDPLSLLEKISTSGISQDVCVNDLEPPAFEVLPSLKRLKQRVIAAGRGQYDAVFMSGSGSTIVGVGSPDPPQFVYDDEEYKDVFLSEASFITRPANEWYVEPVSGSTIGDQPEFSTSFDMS

[8] = biological target: AtIspD (Arabidopsis thaliana, UniProt P69834); assay: University of Hamburg photometric enzymatic inhibition assay AtIspD; assay type: biochemical; conditions: read-out: AtIspD IC50
Chain of AtIspD (P69834 62-302): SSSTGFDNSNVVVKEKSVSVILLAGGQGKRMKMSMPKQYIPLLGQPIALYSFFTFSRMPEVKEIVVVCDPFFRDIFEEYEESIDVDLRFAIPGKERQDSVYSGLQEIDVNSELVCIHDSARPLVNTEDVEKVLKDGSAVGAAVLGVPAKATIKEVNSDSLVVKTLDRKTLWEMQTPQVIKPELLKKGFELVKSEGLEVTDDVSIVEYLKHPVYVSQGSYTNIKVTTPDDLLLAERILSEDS
Procedure: (§1) Compounds were subjected to a photometric enzymatic assay to test for inhibition of the plant enzymes Arabidopsis thaliana IspD and IspF, and IspE from Lycopersicon esculentum.
The procedure for AtIspD enzymatic inhibition assay, was performed by making an assay mixture of 100 mM Tris hydrochloride at pH 8.0 with 10 mM MgCl2, 1 mM dithiothreitol, 2.5 mM potassium phosphoenol pyruvate, 2.1 mM CTP, 2 mM ATP, 1 mM of (2R,3S)-2,3-dihydroxy-4-oxopentyl phosphate, 460 μM NADH, 1.1% (v/v) DMSO, 0.4 U IspE, 1 U lactate dehydrogenase, 1 U pyruvate kinase and 2.4 mU IspD in 180 μL of solution. Solutions were incubated at 27° C. and monitored photometrically. By preparing the assay mixture with a large excess of IspE compared to IspD, any inhibition of IspE by the test inhibitor would be insignificant compared to IspD and therefore the rate of the reaction is determined by IspD activity.

[9] = system: Bacillus cereus; assay: Antibacterial preliminary screening BC; assay type: cell-based; conditions: score 0-3; also: key: 0 represents no inhibition; 3 is comparable to commercial antibiotic control
[10] = system: Klebsiella pneumonia; assay: Antibacterial preliminary screening KP; assay type: cell-based; conditions: score 0-3; also: key: 0 represents no inhibition; 3 is comparable to commercial antibiotic control
[11] = biological target: AtIspF (Arabidopsis thaliana, UniProt Q9CAK8); assay: University of Hamburg photometric enzymatic inhibition assay AtIspF; assay type: biochemical; conditions: read-out: AtIspF IC50
Chain of AtIspF (Q9CAK8 53-231): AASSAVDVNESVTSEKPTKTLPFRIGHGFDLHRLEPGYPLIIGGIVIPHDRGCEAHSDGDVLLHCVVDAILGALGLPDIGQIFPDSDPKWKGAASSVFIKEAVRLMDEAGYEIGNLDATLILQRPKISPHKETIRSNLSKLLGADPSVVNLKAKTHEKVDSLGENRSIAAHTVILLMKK
Procedure: as §1
The IspF assay mixture conditions were as follows: 100 mM Tris hydrochloride at pH 8.0 with 10 mM MgCl2, 1 mM dithiothreitol, 2.5 mM potassium phosphoenol pyruvate, 2 mM ATP, 1 mM of 4-diphosphocytidyl-2C methylerythritol 2-phosphate, 460 μM NADH, 1.1% (v/v) DMSO, 0.5 U CMP kinase, 2.4 mU IspF, 1 U lactate dehydrogenase, 1 U pyruvate kinase in 180 μL of solution. Solutions were incubated at 27° C. and monitored photometrically.

[12] = system: Burkholderia thailandensis; assay type: cell-based; conditions: preliminary screening; for BT score: score 0-3
[13] = biological target: LeIspE (Solanum lycopersicum, UniProt P93841); assay: University of Hamburg photometric enzymatic inhibition assay LeIspE; assay type: biochemical, Lycopersicon esculentum; conditions: read-out: LeIspE IC50
Chain of LeIspE (P93841 89-401): as the sequence (P93841 89-401) above
Procedure: as §1
The IspE assay conditions were very similar to the IspD assay in which the assay mixture was composed of 100 mM Tris hydrochloride at pH 8.0 with 10 mM MgCl2, 1 mM dithiothreitol, 2.5 mM potassium phosphoenol pyruvate, 2 mM ATP, 1 mM of 4-Diphosphocytidyl-2-C-methylerythritol, 460 μM NADH, 1.1% (v/v) DMSO, 2.4 mU IspE, 1 U lactate dehydrogenase, 1 U pyruvate kinase in 180 μL of solution. Solutions were incubated at 27° C. and monitored photometrically.

[14] = system: Escherichia coli; assay: Antibacterial preliminary screening EC; assay type: cell-based; conditions: score 0-3; also: key: 0 represents no inhibition; 3 is comparable to commercial antibiotic control
[15] = system: lettuce seeds; assay: Lettuce leaf assay; assay type: in vivo; design: key: 0 (no effect); 5(complete inhibition or bleaching); conditions: ranking 0-5
Description: The lettuce leaf assay is a qualitative assay used to determine the relative effectiveness of the test compounds at inhibition of germination of seeds and root development as well as causing bleaching of leaves. Isoprenoid synthesis is vital in plants as isoprene-product gibberellins are a class of growth hormones in plants responsible for stimulating cell elongation and division. In addition, some carotenoids are involved in photosynthesis as components of the electron transport chain. MEP pathway inhibitors have the potential to prevent synthesis of these necessary cellular components and growth hormones resulting in inhibition of germination and root development as well as causing chlorosis, or bleaching in the leaves. The lettuce leaf assay, explores the effects of compounds as potential MEP pathway inhibitors by evaluating the effect on bleaching, root development, and germination of lettuce seeds, which all rely on isoprenoid biosynthesis. […] The assay is a qualitative assay and the effects are given rankings from 0 (no effect) to 5 (complete inhibition or bleaching). In this assay, compounds are dissolved in a volatile organic solvent and applied to filter paper in a petri dish. The solvent is allowed to evaporate and lettuce seeds are applied followed by the addition of 5 mL of water to obtain the necessary concentrations. Seeds are allowed to grow and they are observed on day 3 and day 4 for evaluation.

SMILES	CX score [1]	CP score [2]	MtIspD melting point change [3] [°C]	MtIspD melting temp [3] [°C]	ML score [4]	MS score [5]	PA score [6]	LeIspE melting point change [7] [°C]	LeIspE melting temp [7] [°C]	IC50 [8] [µM]	BC score [9]	KP score [10]	IC50 [11] [µM]	melting point [°C]	BT score [12]	IC50 [13] [µM]	EC score [14]	Bleaching ([15]; 0.15 mM)	Germination ([15]; 0.15 mM)	Root Dev. ([15]; 0.15 mM)	other results
c1ccc(Cc2nnc(-c3cc4ccccc4[nH]3)o2)cc1 [HGN-221, 2-benzyl-5-(1H-indol-2-yl)-1,3,4-oxadiazole]	0	0	0.5	48.5	0	0	0	0.00	49.50	636 ± 68	0	0	> 1000	211 to 215	0	> 1000	0	0	0	0	Bleaching ([15]; 0.3 mM): 0; Germination ([15]; 0.3 mM): 0; Root Dev. ([15]; 0.3 mM): 0
CC(C)(C)c1nnc(-c2cc3ccccc3[nH]2)o1 [HGN-239, 2-(tert-butyl)-5-(1H-indol-2-yl)-1,3,4-oxadiazole]	0	0		49.5	0	0	0	−2.50	47.00	> 1000	0	0	> 1000	163 to 168	0	> 1000	0				Bleaching ([15]; 0.5 mM): 0; Germination ([15]; 0.5 mM): 0; Root Dev. ([15]; 0.5 mM): 0; Bleaching ([15]; 1.0 mM): 0; Germination ([15]; 1.0 mM): 1; Root Dev. ([15]; 1.0 mM): 0
Cc1ccc(-c2nnc(-c3cc4ccccc4[nH]3)o2)cc1 [HGN-242, 2-(1H-indol-2-yl)-5-(p-tolyl)-1,3,4-oxadiazole]	0	0	0.8	48.8	0	0	0	−1.75	47.75	225 ± 17	0	0	> 1000	228 to 234	0	109 ± 35	0				Bleaching ([15]; 0.5 mM): 0; Germination ([15]; 0.5 mM): 2; Root Dev. ([15]; 0.5 mM): 0; Bleaching ([15]; 1.0 mM): 0; Germination ([15]; 1.0 mM): 4; Root Dev. ([15]; 1.0 mM): 0
COc1ccc(-c2nnc(-c3nc4ccccc4s3)o2)cc1 [HGN-336, 2-(benzo[d]thiazol-2-yl)-5-(4-methoxyphenyl)-1,3,4-oxadiazole]	0	0		49.5	0	0	0	−1.25	48.25	> 500	0	0	> 500	167 to 169	0	493 ± 49	0	0	1	0	Bleaching ([15]; 0.3 mM): 0; Germination ([15]; 0.3 mM): 0; Root Dev. ([15]; 0.3 mM): 0
Cc1ccc(-c2nnc(-c3nc4ccccc4s3)o2)cc1 [HGN-338, 2-(benzo[d]thiazol-2-yl)-5-(p-tolyl)-1,3,4-oxadiazole]	0	0	0.0	48.0	0	0	0	−1.50	48.00	> 500	0	0	> 500	155 to 160	0	> 500	0	0	0	0	Bleaching ([15]; 0.3 mM): 0; Germination ([15]; 0.3 mM): 1; Root Dev. ([15]; 0.3 mM): 0
Cc1nnc(-c2cc3ccccc3[nH]2)o1 [HGN-209, 2-(1H-indol-2-yl)-5-methyl-1,3,4-oxadiazole]	0	0	1.5	49.5	0	0	0	−2.25	47.25	> 1000	0	0	> 1000	232 to 234	0	> 1000	0				Bleaching ([15]; 0.5 mM): 0; Germination ([15]; 0.5 mM): 1; Root Dev. ([15]; 0.5 mM): 1; Bleaching ([15]; 1.0 mM): 0; Germination ([15]; 1.0 mM): 2; Root Dev. ([15]; 1.0 mM): 1
Clc1ccc(-c2nnc(-c3nc4ccccc4[nH]3)o2)cc1 [HGN-421, 2-(1H-benzo[d]imidazole-2-yl)-5-(4-chlorophenyl)-1,3,4-oxadiazole]	0	0	0.8	48.8	0	1	0	−1.50	48.00	88	0	0	484 ± 95	250 to 255	1	298 ± 49	0	0	1	0	antibacterial activity against Mycobacterium smegmatis [5]: slight antibacterial activity; antibacterial activity against Burkholderia thailandensis [12]: slight antibacterial activity; Bleaching ([15]; 0.3 mM): 0; Germination ([15]; 0.3 mM): 1; Root Dev. ([15]; 0.3 mM): 0
